We go through 2 molecules from patent US8815593B2, “Induction of human embryonic stem cell derived cardiac pacemaker or chamber-type cardiomyocytes by manipulation of neuregulin signaling” (University of Washington, priority 2008, dated 2014).

Type in all cases: cell-based, human
In experiment [1] the test system is hESC-CM cultures. The experiment can be described thus: action potential (AP) phenotyping of hESC-CMs under current clamp after manipulation of NRG-1β/ErbB signaling. Here is the method: At 14 days following induction with activin A, hESC-CMs were dispersed using 0.1 U/ml of dispase (Invitrogen) with 63 U/ml DNase I (Invitrogen) and replated at low density onto 0.5% gelatin-coated glass coverslips. After a few days of additional culture, the spontaneously generated action potentials (APs) of the hESC-CMs were recorded using a HEKA EPC-10 amplifier (HEKA, Lambrecht, Germany), operated in current-clamp mode. Note that the EPC-10 has a true “voltage follower” circuit, similar to a classical microelectrode amplifier (Magistretti et al., “Modalities of Distortion of Physiological Voltage Signals by Patch-Clamp Amplifiers: a Modeling Study,” Biophys J. 74(2 Pt 1):831-842 (1998) and Magistretti et al., “Action Potentials Recorded with Patch-Clamp Amplifiers: Are They Genuine?” Trends Neurosci. 19(12):530-534 (1996), which are hereby incorporated by reference in their entirety). […] Patch pipettes with a resistance of 2-4 MΩ were used; cells with a series resistance of >10 MΩ were discarded. […] Action potential parameters were analyzed by an individual blinded to culture conditions, using Patchmaster (HEKA) and Igor Pro software. […]

For experiment [2], the system named is cGATA6-EGFP-transduced hESC-CM cultures. The experiment can be described thus: cGATA6-EGFP reporter: fraction of EGFP+ putative nodal cells. To be noted: cGATA6-EGFP transduced hESC-CMs, ~50% transduction efficiency; control 15%. Here is the method: Prior to lentiviral transduction, hESC-CMs were replated onto glass coverslips as described for electrophysiological studies and allowed to recover for 4-5 days. Cells were then exposed to cGATA6-EGFP lentivirus (at 5000 LPs/cell, added to their usual RPMI-B27 medium) for 12 hours. […] Transduced cell preparations were then used in either electrophysiological or immunocytochemical studies at 3-4 days post-transduction.
Dissociated hESC-CMs were cultured on glass cover slips, fixed, and immunostained as previously described (Laflamme et al., “Cardiomyocytes Derived from Human Embryonic Stem Cells in Pro-Survival Factors Enhance Function of Infarcted Rat Hearts,” Nat. Biotechnol. 25(9):1015-1024 (2007), McDevitt et al., “Proliferation of Cardiomyocytes Derived from Human Embryonic Stem Cells is Mediated Via the IGF/PI 3-Kinase/Akt Signaling Pathway,” J Mol Cell Cardiol. 39(6):865-873 (2005), Laflamme et al., “Formation of Human Myocardium in the Rat Heart from Human Embryonic Stem Cells,” Am J. Pathol. 167(3):663-671 (2005), and Minami et al., “Extracardiac Progenitor Cells Repopulate Most Major Cell Types in the Transplanted Human Heart,” Circulation 112(19):2951-2958 (2005), which are hereby incorporated by reference in their entirety). […] Each experimental condition was assayed in triplicate, and a minimum of 500 nuclei were counted per sample. […]

For experiment [3], the system named is hESC-CM cultures. The experiment in a line: quantitative RT-PCR of cardiac subtype-specific genes. To be noted: treated hESC-CMs vs control, normalized to GAPDH. The procedure: Total RNA was prepared by lysing cell preparations with the Qiagen RNEasy kit, followed by DNase treatment. After confirming the quality of the RNA using an Agilent Bioanalyzer 2100, it was reverse-transcribed into cDNA using the Superscript III first-strand cDNA synthesis kit (Invitrogen). Tables 2 and 3 list the primers used for semi-quantitative and quantitative RT-PCR reactions, respectively. All primer pairs were designed to be intron-spanning Quantitative real-time PCR reactions were performed using the SYBR green dye system and an Applied Biosystems 7900HT instrument. Cycling conditions were 10 minutes at 95° C., and 40 cycles of 30 seconds at 95° C., 30 seconds at 55° C., and 30 seconds at 72° C. mRNA levels were normalized using GAPDH as an internal control, and adult human heart cDNA was always run in parallel as a positive control.
In the preceding experiments, manipulation of NRG-1β/ErbB signaling changed the relative abundance of the two cardiac subtypes, as determined by both AP phenotyping and activation of the nodal-specific cGATA6-EGFP genetic reporter. To confirm these findings with an independent, molecular approach, quantitative RT-PCR was used to compare the expression of 18 subtype-specific genes in control, AG1478, and NRG-1β ligand-treated hESC-CM cultures (see Table 4). […] In sum, activation of NRG-1β/ErbB signaling increased the expression of genes associated with working cardiomyocytes, while its blockade with AG1478 increased the expression of genes associated with the nodal subtype.

Experiment [4] deals with Akt and ERK kinases in hESC-CM cultures. The experiment can be described thus: Western blot analysis of Akt and Erk phosphorylation. The note with it: hESC-CMs day 10 post-induction, 10 minutes, 10 or 100 ng/ml NRG-1β, with or without 25 μg/ml anti-NRG1β antibody. The procedure:
For this, hESC-CMs (˜5×10^6 […] per well) were treated on day 10 post-induction with 0, 10, or 100 ng/ml NRG-1β (R&D Systems) in the presence or absence of 25 μg/ml anti-NRG1β neutralizing antibody (R&D Systems) for 10 minutes. After treatment, cells were rinsed twice with ice-cold PBS and lysed for 20 minutes on ice with 250 μl of extraction buffer (25 mM Tris-HCl (pH 7.4), 150 mM NaCl, 2 mM EDTA, 10 mM Na2SO4, and 1% Triton X-100 supplemented just prior to use with 50 mM NaF, 1 mM sodium orthovanadate, 1 mM phenylmethylsulfonyl fluoride, and a protease inhibitor cocktail (Sigma)). Lysates were collected with a cell scraper, placed in microcentrifuge tubes, vortexed for 3 minutes at 4° C., and then spun at 4° C. for 20 minutes at 12,000 g to discard cell debris. The resultant protein lysates were then denatured at 95° C. for 10 minutes and loaded (at 30 μg/lane) onto a denaturing 10% SDS/polyacrylamide gel, electrophoresed, and then transferred onto a PVDF membrane. The PVDF blot was blocked for 1 hour at room temperature in 1×TBST (150 mM NaCl, 10 mM Tris-HCl (pH 7.4), and 0.1% Tween) plus 5% nonfat milk, probed overnight with anti-phosphorylation Akt and anti-phosphorylation Erk1/2 antibodies (Cell Signaling), and then incubated with peroxidase-conjugated goat anti-mouse IgG antibody (Sigma). […]

Regarding `COc1cc2ncnc(Nc3cccc(Cl)c3)c2cc1OC` [AG1478], in experiment [1] (differentiating hESC-CM cultures, control 21%), the “proportion of cells exhibiting a nodal-like AP phenotype” value came to 52%. Further, the “percentage of EGFP+ putative nodal cells” value in experiment [2] was 25%. In experiment [3], the “expression of HCN4 relative to control cells” value was found to be 2.0 fold and the “expression of Tbx-3 (TBX3) relative to control cells” value worked out at 2.6 fold.

B1: NRG1β ligand: NRG-1β (R&D Systems), exogenous neuregulin-1β agonist of ErbB receptors (protein)
chain: TSHLVKCAEKEKTFCVNGGECFMVKDLSNPSRYLCKCPNEFTGDRCQNYVMASFYKHLGIEFMEAEELYQK
As to B1, the “effect on fraction of nodal cells (AP phenotyping)” value in experiment [1] (exogenous NRG-1β 100 ng/ml, day 5 to 12 or continuously after day 5, versus control) is listed as “a trend toward the opposite effect (i.e., a reduction in the fraction of nodal cells)”. The “expression of NPPA (atrial natriuretic factor, ANF) relative to controls” value in experiment [3] is 2.6 fold. Moreover, the “phosphorylation (activation) of Akt and ERK kinases” value is listed as “phosphorylated” in experiment [4] and “activation of both kinases” in experiment [4] (listed as NRG-1β agonist).
